{
  "source": "paper PMC12591484",
  "about": "(PLOS One, 2025)",
  "key": {"[1]": {"target": "T1, α1β3γ2I242C GABAA receptors (Homo sapiens, UniProt P14867+P18507+P28472, I281C)", "T1 construct": "expressed in transfected cells; host or cells: Xenopus oocytes injected with capped mRNAs mixed 1α:1β:5γ", "T1 sequence (P14867 28-456)": "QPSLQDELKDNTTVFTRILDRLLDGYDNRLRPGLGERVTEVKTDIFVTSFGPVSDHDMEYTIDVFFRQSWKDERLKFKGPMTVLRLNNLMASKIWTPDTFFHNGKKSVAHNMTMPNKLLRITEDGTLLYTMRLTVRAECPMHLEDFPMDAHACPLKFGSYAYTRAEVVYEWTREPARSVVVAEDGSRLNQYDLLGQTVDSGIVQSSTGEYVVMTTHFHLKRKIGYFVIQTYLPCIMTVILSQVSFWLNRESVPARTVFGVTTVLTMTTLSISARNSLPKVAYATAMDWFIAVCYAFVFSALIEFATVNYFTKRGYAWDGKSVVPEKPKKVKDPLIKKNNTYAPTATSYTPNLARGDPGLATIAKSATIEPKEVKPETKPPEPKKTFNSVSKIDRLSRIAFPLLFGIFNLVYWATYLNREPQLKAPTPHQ", "T1 sequence (P28472 26-473)": "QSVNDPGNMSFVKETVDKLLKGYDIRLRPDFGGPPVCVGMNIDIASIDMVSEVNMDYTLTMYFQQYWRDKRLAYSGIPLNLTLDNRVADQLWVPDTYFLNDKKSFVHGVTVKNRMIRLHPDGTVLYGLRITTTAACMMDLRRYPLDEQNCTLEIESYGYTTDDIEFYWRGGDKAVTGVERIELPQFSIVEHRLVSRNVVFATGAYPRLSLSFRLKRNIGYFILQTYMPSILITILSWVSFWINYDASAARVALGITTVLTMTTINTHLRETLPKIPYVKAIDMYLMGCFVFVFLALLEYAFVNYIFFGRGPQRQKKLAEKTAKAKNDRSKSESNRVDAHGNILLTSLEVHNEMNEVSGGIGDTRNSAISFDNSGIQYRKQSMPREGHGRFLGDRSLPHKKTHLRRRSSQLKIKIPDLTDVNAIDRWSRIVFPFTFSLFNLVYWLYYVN", "T1 sequence (P18507 40-475 I281C)": "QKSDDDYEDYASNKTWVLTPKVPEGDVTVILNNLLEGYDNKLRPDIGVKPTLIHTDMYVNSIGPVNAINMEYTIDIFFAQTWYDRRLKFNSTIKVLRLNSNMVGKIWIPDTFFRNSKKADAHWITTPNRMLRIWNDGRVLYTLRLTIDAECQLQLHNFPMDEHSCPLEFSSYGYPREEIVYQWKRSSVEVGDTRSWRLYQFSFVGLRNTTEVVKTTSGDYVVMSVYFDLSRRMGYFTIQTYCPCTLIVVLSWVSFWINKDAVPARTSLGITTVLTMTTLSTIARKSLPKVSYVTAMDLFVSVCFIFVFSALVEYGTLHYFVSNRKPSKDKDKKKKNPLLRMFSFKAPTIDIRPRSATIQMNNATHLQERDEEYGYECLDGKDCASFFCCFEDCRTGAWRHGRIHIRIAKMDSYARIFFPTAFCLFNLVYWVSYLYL", "set-up": "key: +: Mutant-function studies are deemed positive when bulky mutations (mostly tryptophans) at the site significantly reduce positive modulation by anesthetics; -: Negative results are indicated by “–“ symbols", "conditions": "previously reported; cited from earlier work"}, "[2]": {"target": "T2, α1S270Cβ3γ2L GABAA receptors (Homo sapiens, UniProt P14867+P18507+P28472, S297C)", "T2 construct": "expressed in transfected cells; host or cells: Xenopus oocytes injected with capped mRNA, 1α:1β:5γ", "T2 sequence (P14867 28-456 S297C)": "as the sequence (P14867 28-456) above, with S270C counted along it", "T2 sequence (P28472 26-473)": "as the sequence (P28472 26-473) above", "T2 sequence (P18507 40-475)": "as the sequence (P18507 40-475 I281C) above, with C242I counted along it", "experiment": "Drug protection from pCMBS modification (SCAMP)", "type": "cell-based", "set-up": "key: +: SCAMP is Substituted Cysteine Modification and Protection and is positive when adding anesthetic to cysteine modifier significantly reduces persistent post-exposure effects due to covalent modification; -: Negative results are indicated by “–“ symbols", "conditions": "results of this study (*)", "procedure": "(§1) Experiments were performed in ND-96 buffer at room temperature (20–22°C). Oocytes were placed in a low-volume (30µl) flow chamber and impaled with borosilicate microelectrodes filled with 3M KCl (resistance 0.5–3 MΩ) and voltage-clamped at −50 mV (model OC-725C; Warner Instruments, Hamden, CT, USA). Superfusate solutions in ND-96 were delivered at 2 ml/min from glass syringe reservoirs via computer-controlled valves (VC-8; Warner Instruments), a micro-manifold (ALA-VM8; ALA Scientific Instruments, Farmingdale, NY, USA), and PTFE tubing. Currents were digitized at 200 Hz on a computer running ClampEx v8.0 software (Molecular Devices, San Jose, CA, USA). Digitized traces were filtered with a 10-Hz low-pass Bessel function, leak corrected and analyzed for peak amplitude off-line using Clampfit v8 software (Molecular Devices).\n(§2) Drug protection from pCMBS modification was assessed under pCMBS exposure conditions that produced approximately half of the maximal modification ratio for each mutant receptor, and a least a value of 3. This approach balanced the magnitude of functional modification signals (smaller with less pCMBS exposure) against the challenge of using a reversibly bound ligand to competitively block an irreversible covalent cysteine-modifying reaction. […] Each oocyte was used in a single SCAMP experiment. […] Etomidate was used as a positive control for anesthetic protection in α1M236C and β3M286C mutants and as a negative control in α1S270C, α1A291C, β3L231C, γ2S301C, γ2I242C, and γ2L246C mutants. R-mTFD-MPAB was used as a positive control in α1S270C, α1A291C, β3L231C, and γ2LS301C mutants and as a negative control in α1M236C and β3M286C mutants. For each cysteine mutant and protective drug combination, five oocytes were studied.\n(§3) Non-linear least squares fits and statistical analyses were performed in Prism 10.4.0. (GraphPad Software, San Diego, CA, USA). […] Protection (steric inhibition of pCMBS modification) was inferred when anesthetics produced significant reductions in modification ratios relative to control (no anesthetic) values. The statistical significance threshold was p < 0.05."}, "[3]": {"test_system": "α1β3γ2L GABAA receptors, substituted cysteine at β3M227 (β3– M1)", "set-up": "key: +: SCAMP is Substituted Cysteine Modification and Protection and is positive when adding anesthetic to cysteine modifier significantly reduces persistent post-exposure effects due to covalent modification; -: Negative results are indicated by “–“ symbols", "conditions": "previously reported; cited from earlier work"}, "[4]": {"test_system": "α1β2N265Cγ2L receptors", "conditions": "at the tested concentration; etomidate binds extremely weakly; cited from earlier work"}, "[5]": {"target": "T3, α1β3L231Cγ2L GABAA receptors (Homo sapiens, UniProt P14867+P18507+P28472, L256C)", "T3 construct": "expressed in transfected cells; host or cells: Xenopus oocytes injected with capped mRNA, 1α:1β:5γ", "T3 sequence (P14867 28-456)": "as the sequence (P14867 28-456) above", "T3 sequence (P28472 26-473 L256C)": "as the sequence (P28472 26-473) above, with L231C counted along it", "T3 sequence (P18507 40-475)": "as the sequence (P18507 40-475 I281C) above, with C242I counted along it", "experiment": "Drug protection from pCMBS modification (SCAMP)", "type": "cell-based", "set-up": "key: +: Mutant-function studies are deemed positive when bulky mutations (mostly tryptophans) at the site significantly reduce positive modulation by anesthetics; -: Negative results are indicated by “–“ symbols", "conditions": "results of this study (*); some cells also cite [9]", "procedure": "as §1, §2, §3"}, "[6]": {"target": "T4, α1β3γ2L246C GABAA receptors (Homo sapiens, UniProt P14867+P18507+P28472, L285C)", "T4 construct": "expressed in transfected cells; host or cells: Xenopus oocytes injected with capped mRNAs mixed 1α:1β:5γ", "T4 sequence (P14867 28-456, stated change not applied)": "as the sequence (P14867 28-456) above", "T4 sequence (P28472 26-473)": "as the sequence (P28472 26-473) above", "T4 sequence (P18507 40-475 L285C)": "as the sequence (P18507 40-475 I281C) above, with C242I, L246C counted along it", "experiment": "Drug protection from pCMBS modification (SCAMP)", "type": "cell-based", "set-up": "key: +: Mutant-function studies are deemed positive when bulky mutations (mostly tryptophans) at the site significantly reduce positive modulation by anesthetics; -: Negative results are indicated by “–“ symbols", "conditions": "results of this study (*); etomidate cell also cites [9]", "procedure": "as §1, §2, §3"}, "[7]": {"test_system": "α1β3γ2L GABAA receptors, substituted cysteine at β3M227 (β3– M1)", "set-up": "key: +: Mutant-function studies are deemed positive when bulky mutations (mostly tryptophans) at the site significantly reduce positive modulation by anesthetics; -: Negative results are indicated by “–“ symbols", "conditions": "previously reported; cited from earlier work"}, "[8]": {"target": "T4, α1β3γ2L246C GABAA receptors", "experiment": "Drug protection from pCMBS modification (SCAMP)", "type": "cell-based", "set-up": "key: +: SCAMP is Substituted Cysteine Modification and Protection and is positive when adding anesthetic to cysteine modifier significantly reduces persistent post-exposure effects due to covalent modification; -: Negative results are indicated by “–“ symbols", "conditions": "results of this study (*); etomidate cell also cites [9]", "procedure": "as §1, §2, §3"}},
  "note": "Read-outs that look alike come from different tables or passages of the source. Marks after values point to notes of the source that are not given here.",
  "data": [
    {"smiles": "C=CCC1(c2cccc(C3(C(F)(F)F)N=N3)c2)C(=O)NC(=O)N(C)C1=O", "note": "(centres unmarked) [R-mTFD-MPAB, R-5-allyl-1-methyl-5-(m-trifluoromethyl-diazirynylphenyl) barbituric acid]", "values": [
      {"measurement": "SCAMP result, γ2– (M1) I242", "setting": "[1]", "result": "-^[9]"},
      {"measurement": "SCAMP result, α1+ (M2, M3) S270", "setting": "[2]", "result": "+*"},
      {"measurement": "SCAMP result, β3– (M1) M227", "setting": "[3]", "result": "+^[9]"}
    ]},
    {"smiles": "CCOC(=O)c1cncn1[C@H](C)c1ccccc1", "note": "[etomidate, R-etomidate]", "values": [
      {"measurement": "SCAMP protection at β N265C", "setting": "[4]", "result": "fails to protect"},
      {"measurement": "SCAMP result, β3– (M1) L231", "setting": "[5]", "result": "-^[9], *"},
      {"measurement": "SCAMP result, γ2– (M1) L246", "setting": "[6]", "result": "-^[9], *"},
      {"measurement": "SCAMP result, β3– (M1) M227", "setting": "[7]", "result": "-^[9]"}
    ]},
    {"smiles": "CC(C)c1cc(C2(C(F)(F)F)N=N2)cc(C(C)C)c1CO", "note": "[pTFD-di-iPr-BnOH]", "values": [
      {"measurement": "SCAMP result, γ2– (M1) L246", "setting": "[8]", "result": "+*"}
    ]}
  ]
}
